# Assays:
# Test in all cases: relative viability (nuclei count vs DMSO), 5 days (fraction); higher = more cells survive
# IDH-C35 + Alpelisib = compound: Cc1ccccc1C(C(=O)NC1CCCCC1)N(C(=O)Cn1ccnc1C)c1cccc(F)c1 [IDH-C35] + Cc1nc(NC(=O)N2CCC[C@H]2C(N)=O)sc1-c1ccnc(C(C)(C)C(F)(F)F)c1 [Alpelisib] (partner 2 µM)
# How it was run: (§1)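 Lung cancer cell lines, seeded in 1536-well plates, were treated the following day by pin tool with a single drug or with five library-drug doses (not always all listed) in √10 steps on top of a fixed anchor-drug dose. Cells were fixed and nuclei stained in one step after 5 days, and nuclei were counted. Relative viability is the nuclei count for treated wells divided by that for vehicle wells, reported as medians of duplicate plates.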
# [1] = compound: CC1=C(C(=NN1)C)CC2=C(C3=C(S2)N(C(=O)N(C3=O)C)CC(C)C)C(=O)N4C[C@@H](CO4)O + Nc1ncn([C@H]2C[C@H](O)[C@@H](CO)O2)c(=O)n1 [Decitabine] (partner 2 µM)
# How it was run: as §1
# [2] = compound: CC1=C(C(=NN1)C)CC2=C(C3=C(S2)N(C(=O)N(C3=O)C)CC(C)C)C(=O)N4C[C@@H](CO4)O + Cc1nc(Nc2ncc(C(=O)Nc3c(C)cccc3Cl)s2)cc(N2CCN(CCO)CC2)n1 [Dasatinib] (partner 0.075 µM)
# How it was run: as §1
# [3] = compound: CC1=C(C(=NN1)C)CC2=C(C3=C(S2)N(C(=O)N(C3=O)C)CC(C)C)C(=O)N4C[C@@H](CO4)O + CC(=O)c1c(C)c2cnc(Nc3ccc(N4CCNCC4)cn3)nc2n(C2CCCC2)c1=O [Palbociclib] (partner 0.5 µM)
# How it was run: as §1
cell line,measurement,setting,value
UMC-11,relative viability,IDH-C35 + Alpelisib; first compound 0.08 µM,0.998
same,relative viability,IDH-C35 + Alpelisib; first compound 0.253 µM,0.973
same,relative viability,IDH-C35 + Alpelisib; first compound 0.8 µM,0.928
same,relative viability,IDH-C35 + Alpelisib; first compound 2.53 µM,0.946
same,relative viability,IDH-C35 + Alpelisib; first compound 8 µM,0.988
same,relative viability,[1]; first compound 0.0025 µM,0.54
same,relative viability,[1]; first compound 0.007906 µM,0.506
same,relative viability,[1]; first compound 0.025 µM,0.38
same,relative viability,[1]; first compound 0.07906 µM,0.483
same,relative viability,[1]; first compound 0.25 µM,0.491
same,relative viability,[2]; first compound 0.0025 µM,0.435
same,relative viability,[2]; first compound 0.007906 µM,0.468
same,relative viability,[2]; first compound 0.025 µM,0.451
same,relative viability,[2]; first compound 0.07906 µM,0.348
same,relative viability,[2]; first compound 0.25 µM,0.439
same,relative viability,[3]; first compound 0.0025 µM,0.333
same,relative viability,[3]; first compound 0.007906 µM,0.31
same,relative viability,[3]; first compound 0.025 µM,0.296
same,relative viability,[3]; first compound 0.07906 µM,0.29
same,relative viability,[3]; first compound 0.25 µM,0.339
